The text below walks through data of US20250002507A1, “7,8-DIHYDRO-5H-1,6-NAPHTHYRIDINE DERIVATIVES AS POSITIVE ALLOSTERIC MODULATORS OF THE MUSCARINIC ACETYLCHOLINE RECEPTOR M4 FOR TREATING NEUROLOGICAL AND PSYCHIATRIC DISORDERS” (Vanderbilt University, priority 2021, published 2025).

Molecules are shown by their SMILES.

In data set [1] the target is T1, Human M4 (Homo sapiens, UniProt P08173).
T1 construct: expressed in transfected cells
T1 sequence (P08173 1-479): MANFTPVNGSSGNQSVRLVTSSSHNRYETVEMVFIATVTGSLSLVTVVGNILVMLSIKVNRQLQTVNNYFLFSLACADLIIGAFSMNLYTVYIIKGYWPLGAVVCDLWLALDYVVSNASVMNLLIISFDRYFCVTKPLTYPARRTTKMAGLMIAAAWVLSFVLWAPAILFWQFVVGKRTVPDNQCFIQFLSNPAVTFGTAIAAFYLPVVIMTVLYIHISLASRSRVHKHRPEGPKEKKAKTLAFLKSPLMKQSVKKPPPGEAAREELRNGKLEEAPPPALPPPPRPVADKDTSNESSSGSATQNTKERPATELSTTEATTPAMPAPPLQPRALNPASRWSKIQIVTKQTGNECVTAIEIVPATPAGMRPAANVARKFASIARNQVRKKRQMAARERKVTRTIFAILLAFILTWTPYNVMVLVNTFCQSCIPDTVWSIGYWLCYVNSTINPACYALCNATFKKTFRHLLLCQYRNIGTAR
Description: mAChR M4 cell-based functional assay (calcium flux, potentiation of EC20 acetylcholine response), hM4-Gqi5 CHO-K1 cells. The conditions noted are these: Table 4; for Emax at 30 µM: CHO-K1, Human M4, % ACh maximum at 30 μM, read-out: Emax (% ACh maximum at 30 μM); for EC50: potentiation of EC20 acetylcholine response, calcium flux, CHO-K1 cells, read-out: Human M4 EC50. Put shortly: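 CHO-K1 cells stably expressing human M4 with chimeric Gqi5, loaded with Fluo-4 AM 50 min at 37 °C; calcium flux read by FDSS. 11-point 1:3 compound curves added, then EC20 acetylcholine at 144 s; potentiation of the EC20 response fitted by four-parameter logistic to give EC50 and Emax.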

For data set [2], the system named is patients. The conditions noted are these: patients treated with AChE inhibitor; cited from earlier work.
Data set [3] has as its system Alzheimer's disease patients. The conditions noted are these: Bodick et al. 1997; cited from earlier work.

As for `[2H]C1([2H])Cc2ncc(Nc3cccnc3C)cc2C([2H])([2H])N1c1nn2cnnc2cc1C` [Compound 354, 6-(7-methyl-[1,2,4]triazolo[4,3-b]pyridazin-6-yl)-N-(2-methylpyridin-3-yl)-5,6,7,8-tetrahydro-1,6-naphthyridin-5,5,7,7-d4-3-amine], in data set [1], the Emax (as a rule, the greatest response seen or fitted, relative to the assay's reference) at 30 µM was found to be 87% and the EC50 (in general, the concentration needed to bring the measured effect to its halfway point) is 355 nM.
Turning to `[2H]C1([2H])Cc2ncc(Nc3ccncc3F)cc2C([2H])([2H])N1c1nn2cnnc2cc1C` [Compound 355, N-(3-Fluoropyridin-4-yl)-6-(7-methyl-1,2,4[triazolo 4,3-b]pyridazin-6-yl)-5,6,7,8-tetrahydro-1,6-naphthyridin-5,5,7,7-d4-3-amine], in data set [1], the Emax at 30 µM stood at 94% and the EC50 is 14 nM.
Taken in the same sequence, the figures for `[2H]C1([2H])Cc2ncc(Nc3ccncc3C)cc2C([2H])([2H])N1c1nn2cnnc2cc1C` [Compound 356, 6-(7-methyl-[1,2,4]triazolo[4,3-b]pyridazin-6-yl)-N-(3-methylpyridin-4-yl)-5,6,7,8-tetrahydro-1,6-naphthyridin-5,5,7,7-d4-3-amine] were 77% and 686 nM.
With `[2H]C1([2H])Cc2ncc(Nc3ccncc3C)cc2C([2H])([2H])N1c1nn2cnnc2c(C)c1C` [Compound 357, 6-(7,8-dimethyl-[1,2,4]triazolo[4,3-b]pyridazin-6-yl)-N-(3-methylpyridin-4-yl)-5,6,7,8-tetrahydro-1,6-naphthyridin-5,5,7,7-d4-3-amine], in data set [1], the Emax at 30 µM came to 74% and the EC50 came to 168 nM.
Taken in the same sequence, the figures for `[2H]C1([2H])Cc2ncc(Nc3ccncc3F)cc2C([2H])([2H])N1c1nn2cnnc2c(C)c1C` [Compound 358, 6-(7,8-dimethyl-[1,2,4]triazolo[4,3-b]pyridazin-6-yl)-N-(3-fluoropyridin-4-yl)-5,6,7,8-tetrahydro-1,6-naphthyridin-5,5,7,7-d4-3-amine] were 96% and 3 nM.
As for `[2H]C1([2H])Cc2ncc(Nc3ccccc3F)cc2C([2H])([2H])N1c1nn2cnnc2cc1C` [Compound 359, N-(2-fluorophenyl)-6-(7-methyl-[1,2,4]triazolo[4,3-b]pyridazin-6-yl)-5,6,7,8-tetrahydro-1,6-naphthyridin-5,5,7,7-d4-3-amine], in data set [1], the Emax at 30 µM was found to be 116% and the half-maximal effective concentration (EC50) amounted to 7 nM.
For the molecule `Cc1cc2nncn2nc1N1CCc2ncc(Nc3ccncc3F)cc2C1` [Compound 360, N-(3-fluoropyridin-4-yl)-6-(7-methyl-[1,2,4]triazolo[4,3-b]pyridazin-6-yl)-5,6,7,8-tetrahydro-1,6-naphthyridin-3-amine], in data set [1], the Emax at 30 µM is 100% and the EC50 came out at 5 nM.
The matching figures for `Cc1c(N2CCc3ncc(Nc4ccncc4F)cc3C2)nn2cnnc2c1C` [Compound 361, 6-(7,8-dimethyl-[1,2,4]triazolo[4,3-b]pyridazin-6-yl)-N-(3-fluoropyridin-4-yl)-5,6,7,8-tetrahydro-1,6-naphthyridin-3-amine]: 100% and 2 nM.
The matching figures for `Cc1cc(Nc2cnc3c(c2)CN(c2nn4cnnc4cc2C)CC3)c(F)cn1` [Compound 362, N-(5-fluoro-2-methylpyridin-4-yl)-6-(7-methyl-[1,2,4]triazolo[4,3-b]pyridazin-6-yl)-5,6,7,8-tetrahydro-1,6-naphthyridin-3-amine]: 97% and 51 nM.
Consider `Cc1cc(Nc2cnc3c(c2)CN(c2nn4cnnc4c(C)c2C)CC3)c(F)cn1` [Compound 363, 6-(7,8-dimethyl-[1,2,4]triazolo[4,3-b]pyridazin-6-yl)-N-(5-fluoro-2-methylpyridin-4-yl)-5,6,7,8-tetrahydro-1,6-naphthyridin-3-amine], for which, in data set [1], the Emax at 30 µM was 93% and the EC50 came out at 26 nM.
Regarding `Cc1cnccc1Nc1cnc2c(c1)CN(c1nn3cnnc3cc1C)CC2` [Compound 364, 6-(7-methyl-[1,2,4]triazolo[4,3-b]pyridazin-6-yl)-N-(3-methylpyridin-4-yl)-5,6,7,8-tetrahydro-1,6-naphthyridin-3-amine], in data set [1], the Emax at 30 µM was found to be 83% and the EC50 worked out at 2500 nM.
Taken in the same sequence, the figures for `Cc1cnccc1Nc1cnc2c(c1)CN(c1nn3cnnc3c(C)c1C)CC2` [Compound 365, 6-(7,8-dimethyl-[1,2,4]triazolo[4,3-b]pyridazin-6-yl)-N-(3-methylpyridin-4-yl)-5,6,7,8-tetrahydro-1,6-naphthyridin-3-amine] were 63% and 112 nM.
With `Nc1c2c(nc3ccccc13)CCCC2` [tacrine], the “elevated liver transaminases, share of patients” value in data set [2] was “about 30%”.
For `CCCCCCOc1nsnc1C1=CCCN(C)C1` [xanomeline], the “effect on psychotic behavioral symptoms” value in data set [3] is reported as “reduce psychotic behavioral symptoms”.
